Details of the series: species or system rhesus macaques (Macaca mulatta). The note with it: rhesus monkey, in vivo, po, 20 mg/kg. The source says:
Blood samples were collected for clinical evaluation and pharmacokinetic (PK) analysis (see Table S2 in the supplemental material).
Details of in vivo PK studies of KDU691 and LMV599 in CD-1 mice and monkeys can be found in the supplemental material.
P. cynomolgi sporozoite production
A monkey was infected with […] P. cynomolgi M strain blood stage parasites, thawed from a first passage stock (i.e. blood stage parasites from a monkey infected with P. cynomolgi M strain sporozoites). For each batch of sporozoites needed, a single monkey was infected with P. cynomolgi blood stage parasites.
At day 11 and 12 post infection 9 mL infected blood was collected into a Lithium-heparinised tube. The blood was kept at 38°C and fed approximately 500 three to five days old female Anopheles stephensi mosquitoes Sind-Kasur strain Nijmegen (Nijmegen University Medical Centre St Radboud, Department of Medical Microbiology) using a glass feeder system as described by Ponnudurai et al.. After the second bleed, the monkey was cured by three daily intramuscular injections of 7.5 mg/kg chloroquine, monitored for parasite clearance 24 days after chloroquine treatment and returned to colony.
Mosquitoes were kept in climate chambers at 25 °C and 80% humidity and were fed 5% D -glucose on cotton pads daily. Seven days after feeding on the infected rhesus blood, oocyst numbers were determined in midguts of ten individuals, using 1% mercurochrome stain. Mosquitoes were given a second (uninfected) blood meal immediately afterwards to promote sporozoite maturation and invasion of the salivary glands. Sporozoites were isolated from the P. cynomolgi infected mosquitoes around day16 after the infected blood meal.
In vivo monkey infection and treatment procedures
Sporozoites were isolated from the P. cynomolgi infected mosquitoes around day16 after the infected blood meal. For this, mosquitoes were collected in a beaker and killed with 70% ethanol. After four washes in Leibovitz’ L15 medium containing 3% FCS and 2% pen/strep, salivary glands were dissected.
Salivary glands were kept on ice at all times, sporozoites were liberated by pottering. The sporozoites were washed with PBS, counted in a Burker-Turk chamber, and diluted to 100,000 spz/mL in PBS.
Aliquots of 1 mL were prepared and injected into monkeys via intravenous (i.v.) injection. […]
group (691-RC-high) and a control group (691-C)
KDU691 was formulated as a micro suspension in 0.5% Methylcellulose/0.5% Tween 80 in water, maximum one hour before dosing. The amount of KDU691 sufficient to treat all animals of one group was weighed, a microsuspension of 10 mg/mL in methylcellulose/tween was made and sonicated (Soniprep 150, Sanyo) with an amplitude of 12-15 µm for 15 min. The dose for each monkey was transferred to a 50 mL tube, which was vortexed extensively just before administration.
To collect samples for KDU691 PK analysis in monkeys, approximately 100 µL blood was taken from the calf vein for each time point and immediately spotted onto DBS filters (PKI Bioanalysis cards, Perkin Elmer). […]
The monkeys of the LMV599/PQ experiment were cured with a five day CQ treatment (7.5 mg/kg, i.m. administration) at the first relapse and were monitored until the second relapse after which they were cured with CQ (7.5 mg/kg, intramuscular (i.m.) for five days) plus PQ (1.8 mg/kg for 14 days). […]

These results are taken from PMC4862498, “PI4 Kinase Is a Prophylactic but Not Radical Curative Target in Plasmodium vivax-Type Malaria Parasites” (Antimicrobial Agents and Chemotherapy, 2016).

Regarding `CNC(=O)c1ccc(-c2cnc3cnc(C(=O)N(C)c4ccc(Cl)cc4)cn23)cc1` [KDU691], the “% fT > TRE” value is 16.7%, the AUC stood at 38.82 µM·h, the Cmax turned out to be 4.31 µM and the fAUC/TRE was determined as 13.08. The molecule also displayed a fCmax/TRE of 1.45.

Usually AUC stands for concentration integrated over time. A lower AUC goes with less exposure. As usually defined, the Cmax is the highest concentration seen after dosing.
